Data as given in patent publication US20260284127A1, “COMPOSITIONS OF […] CORDYCEPS AND METHODS OF DELIVERY FOR THE TREATMENT OF ACUTE AND LONG COVID” (priority 2023, published 2026).

Key:
CaCo2 cells = type: in vitro ADME; conditions: 200 μg/ml cordycepin apical, pure solution
Description: Methods: Transepithelial wells with a 1 μm pore size and 0.3 cm^2 surface area were preincubated with DMEM-F12 media with 10% FBS and 10 μg/ml penicillin/streptomycin at 37° C. in 5% CO2 for one hour. CaCo2 cells in the same media were seeded at a density of 50,000 cells. The cells were maintained under these conditions throughout the experiment. Media was changed every 2 to 3 days, and TEER values were monitored from day 10 onward. At day 18, cells with TEER values exceeding 200 ohm/cm^2 were incubated in PAB buffer for 20 minutes: 1 ml in basolateral and 0.5 ml in apical side. Samples of 200 μg/ml cordycepin, and 200 μg/ml cordycepin in a standardized cordyceps extract were prepared in PAB buffer, which was exchanged for the apical buffer. Fifty microlitre samples of both apical and basolateral compartments were acquired initially and at 1 hour intervals. The samples were immediately added to 450 μl of methanol and quantified on an Agilent 4910 LC-mass spectrometer. Cordycepin was measured by direct injection in SMS mode and integrated values were compared against standard curves prepared in the same manner as test samples.

[1] = cordycepin after one oral dose of HAD-B1 formula; cited from earlier work
[2] = cited from earlier work
CaCo2 = conditions: human, Caco-2; cited from earlier work
[3] = given as a pure compound; cited from earlier work

Compound: Nc1ncnc2c1ncn2[C@@H]1O[C@H](CO)C[C@H]1O [cordycepin, 3′-deoxyadenosine]
- cordycepin measured on the basal side (CaCo2 cells): no detectable
- half-life [1]: 8.62 h
- time to maximal concentration [1]: 1.5 h
- experimental solubility in water [2]: 1000 µg/mL
- CaCo2 permeability (CaCo2): 1.1*10^−7 cm/s
- oral bioavailability [3]: extremely low
